Where “and” joins values, the source holds several entries; their conditions need not be identical. Equal values may be shown once.
How the values were obtained:
MA-CA04 virus [1] = tested on: MA-CA04 virus; design: species or system mice; settings: mouse, in vivo
MA-CA04 virus [2] = tested on: MA-CA04 virus; design: species or system BALB/c mice; settings: mouse, in vivo

SMILES	Survival rate (%) (MA-CA04 virus [1])	Mean value of antibody titers (Log 10 PFU/g) ± Standard deviation, Lung, 3 days after infection (MA-CA04 virus [2])	Mean value of antibody titers (Log 10 PFU/g) ± Standard deviation, Nasal concha, 3 days after infection (MA-CA04 virus [2])	other results
CC(/C=C/C=C(\C)C(=O)O[C@@H]1O[C@H](CO[C@@H]2O[C@H](CO)[C@@H](O)[C@H](O)[C@H]2O)[C@@H](O)[C@H](O)[C@H]1O)=C\C=C\C=C(C)\C=C\C=C(/C)C(=O)O[C@@H]1O[C@H](CO[C@@H]2O[C@H](CO)[C@@H](O)[C@H](O)[C@H]2O)[C@@H](O)[C@H](O)[C@H]1O [Crocin]	50	–	–	–
CC(/C=C/C=C(C)/C=C/C(=O)O)=C\C=C\C=C(C)\C=C\C=C(C)\C=C\C(=O)O (stereo in doubt) [Norbixin]	50	7.2 ± 0.3 Log 10 PFU/g and 7.4 ± 0.3 Log 10 PFU/g	–	–
O=C([O-])c1ccccc1.[Na+] [Sodium benzoate]	–	6.7 ± 0.2 Log 10 PFU/g and 7.0 ± 0.2 Log 10 PFU/g	6.4 ± 0.1 Log 10 PFU/g and 6.2 ± 0.04 Log 10 PFU/g	virus titers in the nasal concha and the lung, six days after the infection (MA-CA04 virus [2]): no virus titers were detected in some mice
O=S([O-])[O-].[Na+].[Na+] [Sodium sulfite]	–	7.0 ± 0.1 Log 10 PFU/g	6.1 ± 0.3 Log 10 PFU/g and 6.2 ± 0.2 Log 10 PFU/g	–
C[C@@H]1O[C@@H](OC[C@H]2O[C@@H](Oc3c(-c4ccc(O)c(O)c4)oc4cc(O)cc(O)c4c3=O)[C@H](O)[C@@H](O)[C@@H]2O)[C@H](O)[C@H](O)[C@H]1O [Rutin hydrate]	75	–	–	–
Cc1cc2nc3c(=O)[nH]c(=O)nc-3n(C[C@H](O)[C@H](O)[C@H](O)CO)c2cc1C [Riboflavin]	25	–	–	–
O.O=P([O-])([O-])OCC(O)CO.[Ca+2] (stereo not shown)	75	–	–	influence on body weight (FIG. 3 A and C) (MA-CA04 virus [1]): the same level as the previously known adjuvant Poly(I:C); survival rate (FIG. 3 B and D) (MA-CA04 virus [1]): the same level as Poly(I:C) or was slightly lower than Poly(I:C)
COC(=O)[C@H](Cc1ccccc1)NC(=O)[C@H](CC(=O)O)NCCC(C)(C)C [Neotame]	–	7.5 ± 0.3 Log 10 PFU/g and 7.5 ± 0.2 Log 10 PFU/g	6.1 ± 0.05 Log 10 PFU/g and 6.3 ± 0.1 Log 10 PFU/g	virus titers in the nasal concha and the lung, six days after the infection (MA-CA04 virus [2]): no virus titers were detected in some mice

Source: US20240261398A1 (priority 2018, published 2024)
